Reference: ChEMBL document CHEMBL4028861, “Selective Nonsteroidal Glucocorticoid Receptor Modulators for the Inhaled Treatment of Pulmonary Diseases” (J Med Chem, 2017)

Experiments:
[1] = Cmax in Wistar Han rat plasma at 0.1 umol/kg, administered via intratracheal instillation by LC-MS/MS analysis; format: ADME; set-up: dose 0.1 umol/kg; conditions: inhaled or intranasal
[2] = Clearance in Wistar Han rat at 1 umol/kg, iv administered as bolus dose by LC-MS/MS analysis; format: ADME, organism-based; conditions: in vivo
[3] = AUC (0 to infinity) in Wistar Han rat lung at 0.1 umol/kg, administered via intratracheal instillation by LC-MS/MS analysis; format: ADME, tissue-based; set-up: dose 0.1 umol/kg, time infinity; conditions: inhaled or intranasal
[4] = Lipophilicity, log D of the compound by chromatography; format: physicochemical
[5] = Apparent terminal half life in Wistar Han rat lung at 0.1 umol/kg, administered via intratracheal instillation by LC-MS/MS analysis; format: ADME, tissue-based; conditions: inhaled or intranasal, read-out: betat1/2(app) (converted)
[6] = Mean residence time in Wistar Han rat lung at 0.1 umol/kg, administered via intratracheal instillation by LC-MS/MS analysis; format: ADME, tissue-based; conditions: inhaled or intranasal
Lung [7] = assay: Drug uptake in Wistar Han rat lung at 0.1 umol/kg, administered via intratracheal instillation after 4 hrs by LC-MS/MS analysis; format: ADME, tissue-based; conditions: in vivo, inhaled_or_intranasal
[8] = Intrinsic clearance in human hepatocytes assessed per million cells; format: ADME, cell-based, Hepatocyte; conditions: read-out: CLH
Lung [9] = assay: Drug uptake in Wistar Han rat lung at 0.1 umol/kg, administered via intratracheal instillation after 24 hrs by LC-MS/MS analysis; format: ADME, tissue-based; conditions: in vivo, inhaled_or_intranasal
[10] = Intrinsic clearance in Wistar Han rat hepatocytes assessed per 10^6 cells; format: ADME, cell-based, Hepatocyte; conditions: read-out: CLH
[11] = Oral bioavailability in Wistar Han rat administered via gavage by LC-MS/MS analysis; format: ADME, organism-based; conditions: in vivo
[12] = Terminal half life in Wistar Han rat 1 umol/kg, iv administered as bolus dose by LC-MS/MS analysis; format: ADME, organism-based; conditions: in vivo, read-out: beta t1/2 (converted)
[13] = Volume of distribution at steady state in Wistar Han rat at 1 umol/kg, iv administered as bolus dose by LC-MS/MS analysis; format: ADME, organism-based; conditions: in vivo, read-out: Vdss

- Cmax [1]: 30 nM
- clearance [2]: 42 mL/min/kg
- AUC(0-inf) [3]: 12 µM·h
- chromatographic logD [4]: 5.5
- half-life [5]: 8.9 h
- MRT [6]: 8.8 h
- Drug uptake (Lung [7]): 4.5 %ID
- hepatocyte CLint [8]: 28 µL/min/1e6 cells
- Drug uptake (Lung [9]): 0.8 %ID
- hepatocyte CLint [10]: 22 µL/min/1e6 cells
- bioavailability [11]: 11%
- half-life [12]: 7.4 h
- Vd [13]: 10 L/kg
Structure (SMILES): C[C@H](NC(=O)C(C)(F)F)[C@H](Oc1ccc2c(cnn2-c2ccc(F)cc2)c1)c1ccc2c(c1)OCCO2
